# Laboratory results from patent publication US8334261B2, “Osteopenia animal model” (Oriental Yeast Co., Ltd., priority 2006, dated 2012).
# Columns and labels:
# [1] = tested on: 7-week-old male C57BL/6N mice; assay: Evaluation of male mice; type: in vivo, mouse
# Protocol: GST-RANKL was intraperitoneally administered 3 times to groups of 7-week-old male C57BL/6N mice at 1 mg/kg every 24 hours. The femur and serum were collected from each mouse 1.5 hours after the 3rd administration and compared with those of the PBS administration group. Regarding bone metabolism markers, TRAP-5b, calcium (Ca), and alkaline phosphatase (ALP) in the serum were measured. Each femur was subjected to bone density measurement with pQCT and image analysis with micro CT.
# [2] = tested on: 7-week-old female C57BL/6N mice; assay: Tibial bone morphology measurement after GST-RANKL 2 mg/kg; type: in vivo, mouse; conditions: 2 mg/kg i.p. 3 times
# Protocol: GST-RANKL was intraperitoneally administered 3 times to groups of 7-week-old female C57BL/6N mice at 2 mg/kg every 24 hours, followed by dissection. The tibia of each mouse was subjected to toluidine blue staining and morphology measurement. A solvent (PBS) was administered to the control group in the same manner as above. The GST-RANKL intraperitoneal administration group was subjected to tibial bone morphology measurement. The unit bone mass (BV/TV), the trabecular width (Tb.Th), and the trabecular number (Tb.N) decreased by approximately 30% (p<0.03), approximately 10% (P<0.03), and approximately 20% (p<0.05), respectively, compared with those for the control group (FIGS. 29 to 31). In addition, the osteoid thickness (O.Th), the eroded surface area (ES/BS), the osteoclast number (N.Oc/B.Pm), and the osteoclast surface area (Oc.S/BS) increased, respectively, to approximately 1.2-fold (p<0.04), approximately 1.8-fold (p<0.001), approximately 1.9-fold (p<0.001), and approximately 1.8-fold (p<0.001) as high as those for the control group (FIGS. 32 to 35). In addition, the sections obtained in this Example were subjected to TRAP staining. […] That is, the osteopenia mechanism induced by GST-RANKL administration involves promotion of bone resorption, but not reduction in osteogenesis. However, the aforementioned coupling phenomenon causes promotion of osteogenesis depending on the GST-RANKL dose, the number of doses, and the period of time elapsed after administration, which might results in an increase in the osteoblast surface area.
# [3] = tested on: GST-RANKL-administered 7-week-old female C57BL/6 mice; assay: Drug evaluation with bisphosphonate (risedronate) in GST-RANKL mice; type: in vivo, mouse; conditions: for femur bone density decrease vs PBS group: RANKL alone
# Protocol: Risedronate was separately administered via a subcutaneous route to groups of 7-week-old female C57BL/6 mice at doses of 3, 10, and 30 μg/kg every 24 hours from the day before GST-RANKL administration to the end of the experimentation. The femur and serum were collected from each mouse 1.5 hours after the 3rd administration of GST-RANKL. Measurement of TRAP-5b, calcium (Ca), and alkaline phosphatase (ALP) was carried out. Each femur was subjected to bone density measurement and image analysis with the use of pQCT.
# [4] = tested on: GST-RANKL-administered, ovariectomized 7-week-old female C57BL/6N mice; assay: Drug evaluation with a selective estrogen receptor modulator (raloxifene) in GST-RANKL/OVX mice; type: in vivo, mouse
# Description: In addition, PBS (i.p.) and ultrapure water (p.o.) were used as control substances for comparison with GST-RANKL and raloxifene, respectively, upon administration.
# The serum collected from each mouse was subjected to measurement of serum bone resorption markers (Ca and TRAP-5b) and an osteogenesis marker (ALP). Each femur was subjected to measurement of the bone density, the bone mineral content, and the cortical bone thickness with pQCT at points 0.6, 0.8, 1.0 mm from the distal growth plate on the proximal side. In addition, image analysis was carried out with micro CT.
# [5] = tested on: 8-week-old female C57BL/6N mice; assay: Administration of GST-RANKL to mouse calvaria; type: in vivo; conditions: 3 days
# Protocol: GST-RANKL was administered to the calvaria of groups of 8-week-old female C57BL/6N mice for 3 days. The femur was collected from each mouse on day 5 day after the initiation of experimentation. The femur bone density was evaluated with pQCT. Experimentation was conducted with the use of the following three experimental groups: the experimental group 1 subjected to administration of GST-RANKL at 0.5 mg/kg twice daily; the experimental group 2 subjected to administration of GST-RANKL at 1 mg/kg once daily; and the PBS group serving as a control group for comparison and being subjected to PBS administration. Cancellous bone density measurement was carried out at points 0.6 mm, 0.8 mm, and 1.0 mm from the distal growth plate on the proximal side of the collected femur with pQCT.
# [6] = tested on: 7-week-old female C57BL/6N mice; assay: Bone healing after GST-RANKL administration; type: in vivo, mouse
# Protocol: GST-RANKL was intraperitoneally administered twice to groups of 7-week-old female C57BL/6N mice at 1 mg/kg every 24 hours. The time point 24 hours after the 2nd administration was designated as “week 0.” The serum and femur were collected from each mouse separately at weeks 0, 1, 4, 6, and 8 and compared with those collected from mice subjected to PBS administration in a similar manner. Regarding bone metabolism markers, TRAP-5b, calcium (Ca), and alkaline phosphatase (ALP) in the serum were measured. Each femur was subjected to bone density measurement with pQCT and image analysis with micro CT.
# The bone density was measured at points 0.6 mm, 0.8 mm, 1.0 mm from the distal growth plate on the proximal side of the femur with the use of pQCT.
# [7] = GST-RANKL administration+OVX group, 1.0 mm
substance,measurement,setting,value
"GST-RANKL: fused protein of Glutathione S-transferase with human RANKL residues 140-317, expressed in Escherichia coli, 47.0 kDa",serum ALP concentration,[1]; 1 mg/kg i.p. 3 times,no changes
same,serum TRAP-5b concentration increase,[1]; 1 mg/kg i.p. 3 times,approximately 65%
same,serum Ca concentration increase vs PBS group,"[1]; 1 mg/kg i.p. 3 times, no significant difference",7%
same,femur bone density decrease,[1]; 0.6 mm,approximately 6%
same,femur bone density decrease,[1]; 0.8 mm,approximately 10%
same,femur bone density decrease,[1]; 1.0 mm,approximately 15%
same,osteoblast surface area,[2],no increase
same,"eroded surface area (ES/BS), fold as high as control",[2]; tibia,approximately 1.8 fold
same,"osteoclast number (N.Oc/B.Pm), fold as high as control",[2]; tibia,approximately 1.9 fold
same,"osteoclast surface area (Oc.S/BS), fold as high as control",[2]; tibia,approximately 1.8 fold
same,"osteoid thickness (O.Th), fold as high as control",[2]; tibia,approximately 1.2 fold
same,trabecular number (Tb.N) decrease vs control,[2]; tibia,approximately 20%
same,trabecular width (Tb.Th) decrease vs control,[2]; tibia,approximately 10%
same,unit bone mass (BV/TV) decrease vs control,[2]; tibia,approximately 30%
same,osteoclast number by TRAP staining,[2]; tibia sections,greater than that for the control group
same,serum Ca concentration,[3]; GST-RANKL 3 times,did not obviously vary
same,"serum TRAP-5b concentration, fold as high",[3]; RANKL administration,approximately 2 fold
same,femur bone density decrease vs PBS group,[3]; 0.6 mm,27%
same,femur bone density decrease vs PBS group,[3]; 0.8 mm,35%
same,femur bone density decrease vs PBS group,[3]; 1.0 mm,35%
same,serum ALP concentration vs PBS+Sham group,[4]; GST-RANKL administration+OVX group,tended to increase
same,cortical bone mineral content decrease vs PBS+Sham group,[4]; [7],49%
same,cortical bone thickness decrease vs PBS+Sham group,[4]; [7],49%
same,total bone density vs PBS+Sham group,"[4]; GST-RANKL administration+OVX group, no significant difference",tended to decrease
same,cancellous bone density (pQCT),[4]; among the all groups,no significant differences
same,femur cancellous bone density vs PBS group,"[5]; experimental group 1: 0.5 mg/kg twice daily to the calvarium, at the measurement points",bone density decrease was observed
same,femur cancellous bone density vs PBS group,"[5]; experimental group 2: 1 mg/kg once daily to the calvarium, at 0.8 mm and 1.0 mm",bone density decrease was observed
same,serum Ca concentration,"[6]; 1 mg/kg i.p. twice, weeks 0 to 8",no significant difference
same,"femur bone density decreased to, vs PBS group","[6]; 0.6 mm, week 0",5%
same,"femur bone density decreased to, vs PBS group","[6]; 0.6 mm, week 1",7%
same,"femur bone density decreased to, vs PBS group","[6]; 0.6 mm, week 4",9%
same,"femur bone density decreased to, vs PBS group","[6]; 0.8 mm, week 0",10%
same,"femur bone density decreased to, vs PBS group","[6]; 0.8 mm, week 1",11%
same,"femur bone density decreased to, vs PBS group","[6]; 0.8 mm, week 4",15%
same,"femur bone density decreased to, vs PBS group","[6]; 1.0 mm, week 0",16%
same,"femur bone density decreased to, vs PBS group","[6]; 1.0 mm, week 1",13%
same,"femur bone density decreased to, vs PBS group","[6]; 1.0 mm, week 4",11%
same,"serum TRAP-5b concentration, fold as high as PBS group",[6]; 24 hours after RANKL administration (0 week),approximately 3 fold
same,femur bone density vs PBS group,[6]; week 6,returned to a level comparable to that for the PBS administration group
same,"serum ALP concentration, fold as high",[6]; weeks 0 and 1,approximately 1.4 fold
